Data reported in paper PMC9837035 (Nature Communications, 2023).
In brackets after ≈: the same amount, converted by molar mass. Several values for one entry are separate records, joined by “and”; a condition that tells them apart may be missing. Equal entries are not always repeated. Where two headings read alike, the source gives them in different places.

Tests used:
G9a = biological target: T1, G9a (Homo sapiens, UniProt Q96KQ7); experiment: Radioisotope-based methyltransferase assay (selectivity); conditions: 1 μM SAM
T1 sequence (Q96KQ7 1-1210): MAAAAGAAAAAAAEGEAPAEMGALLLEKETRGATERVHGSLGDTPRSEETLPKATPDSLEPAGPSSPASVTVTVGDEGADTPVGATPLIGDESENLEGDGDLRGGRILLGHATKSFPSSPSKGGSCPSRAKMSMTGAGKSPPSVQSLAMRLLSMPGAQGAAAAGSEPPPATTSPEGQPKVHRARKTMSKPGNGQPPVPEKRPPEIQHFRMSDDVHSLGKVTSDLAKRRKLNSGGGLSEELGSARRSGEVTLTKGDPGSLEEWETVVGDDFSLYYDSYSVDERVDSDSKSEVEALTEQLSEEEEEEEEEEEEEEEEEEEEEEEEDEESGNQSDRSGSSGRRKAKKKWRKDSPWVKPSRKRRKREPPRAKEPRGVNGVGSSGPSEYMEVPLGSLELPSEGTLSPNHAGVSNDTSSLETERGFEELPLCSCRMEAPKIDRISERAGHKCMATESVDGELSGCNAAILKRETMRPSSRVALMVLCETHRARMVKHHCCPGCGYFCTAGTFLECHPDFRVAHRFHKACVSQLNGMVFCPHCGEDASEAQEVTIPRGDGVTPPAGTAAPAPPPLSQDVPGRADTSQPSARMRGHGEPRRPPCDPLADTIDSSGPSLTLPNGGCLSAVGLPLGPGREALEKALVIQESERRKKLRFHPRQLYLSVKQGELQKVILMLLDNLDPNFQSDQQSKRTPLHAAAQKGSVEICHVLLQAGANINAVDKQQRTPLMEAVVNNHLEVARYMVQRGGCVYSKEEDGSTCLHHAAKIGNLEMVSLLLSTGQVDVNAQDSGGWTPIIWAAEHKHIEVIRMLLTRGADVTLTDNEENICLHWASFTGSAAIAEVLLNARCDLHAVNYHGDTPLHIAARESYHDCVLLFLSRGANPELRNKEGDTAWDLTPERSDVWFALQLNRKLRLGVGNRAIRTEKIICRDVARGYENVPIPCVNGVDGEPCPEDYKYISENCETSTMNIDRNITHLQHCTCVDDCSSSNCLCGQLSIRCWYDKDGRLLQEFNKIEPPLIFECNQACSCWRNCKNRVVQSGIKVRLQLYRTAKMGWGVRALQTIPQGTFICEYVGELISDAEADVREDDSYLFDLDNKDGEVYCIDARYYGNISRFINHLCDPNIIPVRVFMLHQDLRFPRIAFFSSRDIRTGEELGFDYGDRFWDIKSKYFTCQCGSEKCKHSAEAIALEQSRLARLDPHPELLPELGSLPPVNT

Aqueous solubility = assay type: physicochemical; parameters: Solubility in PBS (pH = 7.4): unit: uM; conditions: for solubility at 1 h: phosphate buffer
Method: The direct UV kinetic solution method was performed in duplicate. A 10 mM DMSO solution of compound was added to a microtube containing aqueous pH 7.4 or pH 6.8 phosphate buffer solution (maximum concentration: 200 μM). The solution mixture was vigorously shaken at ambient temperature for 1 h. The precipitate was removed by centrifugal separation, and the UV absorbance of the supernatant and the standard solution prepared by the test compound for calibration were measured in duplicate using a 96-well UV plate reader, SPECTRA MAX190 (Molecular Devices).

NSD3 = biological target: T2, NSD3 (Homo sapiens, UniProt Q9BZ95); experiment: Radioisotope-based methyltransferase assay (selectivity); assay type: biochemical; conditions: read-out: IC50
T2 construct: purchased Reaction Biology
T2 sequence (Q9BZ95 1-1437): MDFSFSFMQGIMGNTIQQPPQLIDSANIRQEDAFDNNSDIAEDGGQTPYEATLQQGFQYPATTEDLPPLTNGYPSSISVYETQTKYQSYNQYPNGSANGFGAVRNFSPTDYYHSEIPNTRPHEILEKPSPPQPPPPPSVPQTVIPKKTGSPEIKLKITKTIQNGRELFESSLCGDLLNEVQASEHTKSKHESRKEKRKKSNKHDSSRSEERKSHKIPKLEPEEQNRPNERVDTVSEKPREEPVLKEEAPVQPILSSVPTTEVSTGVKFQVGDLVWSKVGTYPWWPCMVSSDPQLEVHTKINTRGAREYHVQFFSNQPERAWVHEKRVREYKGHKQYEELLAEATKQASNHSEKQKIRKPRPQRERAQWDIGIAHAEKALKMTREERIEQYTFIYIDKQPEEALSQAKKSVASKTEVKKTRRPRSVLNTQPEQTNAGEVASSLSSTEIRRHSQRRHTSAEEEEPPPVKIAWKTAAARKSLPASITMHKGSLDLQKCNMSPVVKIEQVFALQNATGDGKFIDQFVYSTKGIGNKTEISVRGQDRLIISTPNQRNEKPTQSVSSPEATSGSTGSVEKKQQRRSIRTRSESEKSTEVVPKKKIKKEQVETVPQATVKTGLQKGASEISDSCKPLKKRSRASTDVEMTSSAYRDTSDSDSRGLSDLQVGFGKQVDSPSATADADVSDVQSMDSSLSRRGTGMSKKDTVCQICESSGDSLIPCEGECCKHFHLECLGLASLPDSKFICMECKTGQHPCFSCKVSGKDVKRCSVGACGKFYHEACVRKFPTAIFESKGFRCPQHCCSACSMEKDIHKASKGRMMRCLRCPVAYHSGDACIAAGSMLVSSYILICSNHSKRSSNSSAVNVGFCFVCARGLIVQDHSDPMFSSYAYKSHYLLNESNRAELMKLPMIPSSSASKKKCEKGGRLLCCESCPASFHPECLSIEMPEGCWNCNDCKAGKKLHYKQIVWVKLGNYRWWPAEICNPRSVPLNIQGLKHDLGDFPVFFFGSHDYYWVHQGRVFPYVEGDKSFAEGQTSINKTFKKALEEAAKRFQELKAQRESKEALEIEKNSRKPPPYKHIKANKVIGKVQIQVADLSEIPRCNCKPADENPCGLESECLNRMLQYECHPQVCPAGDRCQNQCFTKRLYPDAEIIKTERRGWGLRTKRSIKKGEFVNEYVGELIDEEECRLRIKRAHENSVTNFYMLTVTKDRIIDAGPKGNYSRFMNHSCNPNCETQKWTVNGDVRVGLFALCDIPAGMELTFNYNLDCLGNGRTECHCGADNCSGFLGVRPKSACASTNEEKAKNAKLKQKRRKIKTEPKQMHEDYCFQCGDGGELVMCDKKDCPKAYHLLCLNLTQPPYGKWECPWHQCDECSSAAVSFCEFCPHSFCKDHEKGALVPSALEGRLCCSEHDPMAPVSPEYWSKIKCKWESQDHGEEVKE

NSD2 = NSD2 (Homo sapiens, UniProt O96028)
Chain of NSD2 (O96028 whole entry): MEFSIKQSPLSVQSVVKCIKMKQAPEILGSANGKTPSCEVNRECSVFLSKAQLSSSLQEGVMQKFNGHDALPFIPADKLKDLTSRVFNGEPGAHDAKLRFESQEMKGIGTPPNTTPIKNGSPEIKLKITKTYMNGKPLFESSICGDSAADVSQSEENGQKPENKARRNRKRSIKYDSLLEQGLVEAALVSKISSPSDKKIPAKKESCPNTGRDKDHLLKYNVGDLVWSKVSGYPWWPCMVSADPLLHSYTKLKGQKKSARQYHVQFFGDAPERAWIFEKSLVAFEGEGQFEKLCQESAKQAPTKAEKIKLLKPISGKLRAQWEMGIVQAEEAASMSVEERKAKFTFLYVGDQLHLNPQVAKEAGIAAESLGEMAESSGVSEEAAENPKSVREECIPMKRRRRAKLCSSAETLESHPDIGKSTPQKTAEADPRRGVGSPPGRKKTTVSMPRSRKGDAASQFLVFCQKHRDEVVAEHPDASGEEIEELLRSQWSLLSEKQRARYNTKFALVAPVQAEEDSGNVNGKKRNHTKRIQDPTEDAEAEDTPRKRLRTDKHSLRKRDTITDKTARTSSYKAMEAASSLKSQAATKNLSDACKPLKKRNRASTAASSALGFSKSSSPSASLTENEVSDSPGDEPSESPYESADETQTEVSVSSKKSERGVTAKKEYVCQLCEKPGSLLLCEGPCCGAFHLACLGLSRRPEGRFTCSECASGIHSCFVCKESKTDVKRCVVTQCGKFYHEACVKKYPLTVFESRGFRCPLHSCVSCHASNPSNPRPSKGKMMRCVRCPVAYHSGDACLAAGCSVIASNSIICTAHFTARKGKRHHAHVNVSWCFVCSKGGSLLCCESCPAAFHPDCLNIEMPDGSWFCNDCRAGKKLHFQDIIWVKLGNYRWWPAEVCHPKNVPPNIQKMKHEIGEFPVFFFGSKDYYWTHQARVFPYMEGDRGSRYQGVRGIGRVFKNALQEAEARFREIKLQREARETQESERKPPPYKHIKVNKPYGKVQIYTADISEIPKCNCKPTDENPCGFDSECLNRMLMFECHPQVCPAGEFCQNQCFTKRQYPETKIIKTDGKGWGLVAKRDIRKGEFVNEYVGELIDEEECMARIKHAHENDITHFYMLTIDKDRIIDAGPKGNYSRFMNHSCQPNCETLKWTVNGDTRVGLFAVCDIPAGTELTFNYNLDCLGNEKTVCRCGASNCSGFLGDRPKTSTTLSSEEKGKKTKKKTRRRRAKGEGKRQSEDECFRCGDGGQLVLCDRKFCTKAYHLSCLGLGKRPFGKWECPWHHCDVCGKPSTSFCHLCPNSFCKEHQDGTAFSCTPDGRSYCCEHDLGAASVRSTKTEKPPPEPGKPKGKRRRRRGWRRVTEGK

SMILES: Cc1c(C(=O)NC(CCC2CC2)C(=O)Nc2ccc(C#N)cc2)[nH]c2c1C(=O)CC(C)(C)C2 (stereo not drawn) [RK-701]
- IC50 (G9a): 0.023 µM
- Solubility in PBS (pH = 6.8) (Aqueous solubility; PBS pH = 6.8, replicate values): 31.5 and 23.5 and 26.4
- Solubility in PBS (pH = 7.4) (Aqueous solubility; PBS pH = 7.4, replicate values): 10.4542 and 12.4313 and 11.5534 and 10.9261 and 15.3115 and 10.1928 and 7.42 and 8.729
- solubility at 1 h (Aqueous solubility; pH 6.8, PBS pH = 6.8, replicate values, read-out: Solubility in PBS (pH = 6.8)): 23.9 µM (≈ 10.7 µg/mL)
- solubility at 1 h (Aqueous solubility; pH 6.8, pH6.8, read-out: Solubility in PBS): 26.3 ± 3.2 µM (≈ 11.7 µg/mL)
- solubility at 1 h (Aqueous solubility; pH 7.4, pH7.4, read-out: Solubility in PBS): 10.9 ± 2.2 µM (≈ 4.87 µg/mL)
- IC50 (NSD3; NSD3, 1 μM SAM): > 100 µM
- IC50 (NSD3; NSD3, RK-701 in duplicate): > 100 µM
- IC50 (NSD2): > 100 µM
